Values after ≈ are worked out from the molar mass of the structure shown.
How the values were obtained:
rHPIV3-EGFP [1] = experiment: 7-Day colorimetric neutral red uptake antiviral assay; assay type: cell-based, human parainfluenza type 3 virus; conditions: for SI: 7-Day colorimetric neutral red uptake assay, SI = Mean IC50/Mean EC50; for EC50: Homo sapiens, MA104, 168 h
Experimental: (§1) Ninety-six-well plates were seeded with MA-104 cells and infected with 3.9×10^3 PFU of either the HPIV-3 WT or rHPIV3-EGFP virus in duplicate at an MOI=0.1 in quadruplicate wells. The plates were incubated at 37° C. and on each day, including the day of infection, the cells were stained with 0.034% neutral red for 2 hours at 37° C., washed once with PBS, and the NR extracted with ethanol:Sörenson's citrate buffer for 30 min while rocking at room temperature. Absorbance, at 540 and 405 nm wavelengths, was read with an Opsys MR™ spectrophotometer and Revelation Quicklink software, version 4.24 (both from Dynex Technologies, Chantilly, Va.). The two curves was compared and statistically analyzed by ANOVA.
(§2) Six 96-well plates were seeded with MA-104 cells to evaluate the NR and EGFP assays in parallel. A format was used allowing seven compounds to be tested per plate. Each compound was plated using four 10-fold dilutions in triplicate and starting the concentration at 1000 μg/mL for ribavirin (positive control), and ribamidine; 100 μg/mL for 2-thio-6-azauridine, 3-deazaguanosine, 1-(4-methoxybenzyloxy) adenosine, selenazofurin, and EICAR; 100 μM for CS-978, CS-1164, CS-1196, CS-1227, PSI-0194, PSI-5067, PSI-5095, PSI-5098, PSI-5452, PSI-5449, PSI-5741, PSI-5746, PSI-5747, PSI-5852, and PSI-5990; and 1 μg/mL for DAS181. Compounds that were reconstituted in DMSO were diluted down to working concentrations of 0.5% DMSO and less to eliminate cell toxicity due to the DMSO. Two of the replicates were infected with 3.9×10^3 PFU of rHPIV3-EGFP, at an MOI=0.1, while the remaining replicate served as a toxicity control with no virus added. Three of the plates were incubated at 37° C. for 3 days, after which, the toxicity and cell control cells were stained with NR following the same procedure described earlier. NR fluorescence was measured with the FMax® fluorometer, using the 544 nm excitation and 612 nm emission filters. The untreated virus control and treated, infected cells were washed with PBS, fresh PBS was added, and the fluorescence was measured with the FMax® fluorometer, using the 485 nm excitation and 538 nm emission filters. The other three plates were assayed using the traditional colorimetric NR assay. After incubation for 7 days at 37° C., the cells were stained with NR following the same procedure described earlier. For the NR assay, EC50 and 50% cell inhibitory concentrations (IC50) were calculated by linear regression from percents of untreated, uninfected cell and untreated, infected virus controls. For the EGFP assay, EC50 values were calculated by linear regression using percents of untreated, infected virus controls and IC50 values were also calculated by linear regression using percents of untreated, uninfected cell control. The EC50 and IC50 values for each compound for both assays were compared and statistically analyzed by unpaired, two-tailed Student's t-test. A selectivity index (SI) was calculated for each compound for each assay using the formula: SI=Mean IC50/Mean EC50. Compounds were sorted into positive, SI≧10, and negative, SI<10, categories for the combination of NR and EGFP assays. Using the NR assay as the gold standard, sensitivity, true positives/(true positives+false negatives), and specificity, true negatives/(true negatives+false positives), were calculated.

MA-104 cells [2] = experiment: 7-Day colorimetric neutral red uptake assay, toxicity control (no virus); assay type: cell-based, African green monkey; conditions: Chlorocebus sabaeus, MA104, 168 h, uninfected MA-104 cells, mean of three assays ± SD, read-out: IC50 (50% cell inhibitory concentration)
Experimental: as §1, §2

rHPIV3-EGFP [3] = experiment: 3-Day EGFP fluorescent antiviral assay; assay type: cell-based, human parainfluenza type 3 virus; conditions: for EC50: MA104, 72 h
Experimental: as §2

MA-104 cells [4] = experiment: 3-Day EGFP assay, toxicity control (no virus, NR fluorescence); assay type: cell-based, African green monkey; conditions: Chlorocebus sabaeus, MA104, 72 h, 3-Day EGFP fluorescent assay, uninfected MA-104 cells, read-out: IC50 (50% cell inhibitory concentration)
Experimental: as §2

HPIV-3 WT = experiment: Antiviral sensitivity CPE assay (neutral red), HPIV-3 WT; assay type: cell-based, human parainfluenza type 3 virus; conditions: Human respirovirus 3, MA104, 168 h, MA-104 cells, MOI=0.1, 7 days, NR, mean ± SD of three replicates
Experimental: as §1
(§3) An antiviral CPE assay was used to evaluate the antiviral sensitivity profiles of the HPIV-3 WT and rHPIV3-EGFP viruses. Briefly, three compounds: ribavirin (positive control), 2-thio-6-azauridine, and DAS181, were plated in four 10-fold dilutions in five replicates on 96-well plates seeded with MA-104 cells using starting concentrations of 1000, 100, and 1 μg/mL, respectively. […] Fifty percent effective concentrations (EC50) were calculated by linear regression using percents of untreated, uninfected cell and untreated, infected virus controls. EC50 values were compared and statistically analyzed by the unpaired, two-tailed Student's t-test.

rHPIV3-EGFP [5] = experiment: Antiviral sensitivity CPE assay (neutral red), rHPIV3-EGFP; assay type: cell-based, human parainfluenza type 3 virus; conditions: MA104, 168 h
Experimental: as §1, §3

Structure (SMILES): COc1ccc(COn2cnc3c(ncn3[C@@H]3O[C@H](CO)[C@@H](O)[C@H]3O)c2=N)cc1 [1-(4-methoxybenzyloxy) adenosine]
- SI (rHPIV3-EGFP [1]): 0
- EC50 (rHPIV3-EGFP [1]): > 31 µg/mL
- IC50 (MA-104 cells [2]): 31 ± 1.2 µg/mL
- EC50 (rHPIV3-EGFP [3]): > 41 µg/mL
- SI (rHPIV3-EGFP [3]): 0
- IC50 (MA-104 cells [4]): 41 ± 2.5 µg/mL

Structure (SMILES): O=c1cnn([C@@H]2O[C@H](CO)[C@@H](O)[C@H]2O)c(=S)[nH]1 [2-Thio-6-azauridine, 2-[(2R,3R,4S,5R)-3,4-Dihydroxy-5-(hydroxymethyl)oxolan-2-yl]-3-sulfanylidene-1,2,4-triazin-5-one]
- EC50 (HPIV-3 WT): 1.1 ± 0.058 µg/mL (≈ 4.21 µM)
- EC50 (rHPIV3-EGFP [5]): 0.63 ± 0.075 µg/mL (≈ 2.41 µM)
- SI (rHPIV3-EGFP [1]): 28
- EC50 (rHPIV3-EGFP [1]): 0.6 ± 0.095 µg/mL
- IC50 (MA-104 cells [2]): 17 ± 3.5 µg/mL
- EC50 (rHPIV3-EGFP [3]): 0.89 ± 0.13 µg/mL
- SI (rHPIV3-EGFP [3]): >110
- IC50 (MA-104 cells [4]): > 100 µg/mL

Structure (SMILES): Nc1cc2c(ncn2[C@@H]2O[C@H](CO)[C@@H](O)[C@H]2O)c(=O)[nH]1 [3-Deazaguanosine, 6-amino-1-[(2R,3R,4S,5R)-3,4-dihydroxy-5-(hydroxymethyl)oxolan-2-yl]-5H-imidazo[4,5-c]pyridin-4-one]
- SI (rHPIV3-EGFP [1]): <1
- EC50 (rHPIV3-EGFP [1]): > 31 µg/mL
- IC50 (MA-104 cells [2]): 34 ± 3.5 µg/mL
- EC50 (rHPIV3-EGFP [3]): 21 µg/mL
- SI (rHPIV3-EGFP [3]): >5
- IC50 (MA-104 cells [4]): > 100 µg/mL

Structure (SMILES): C#Cc1c(C(N)=O)ncn1[C@@H]1O[C@H](CO)[C@@H](O)[C@H]1O [EICAR, 1-[(2R,3R,4S,5R)-3,4-dihydroxy-5-(hydroxymethyl)oxolan-2-yl]-5-ethynylimidazole-4-carboxamide]
- SI (rHPIV3-EGFP [1]): >120
- EC50 (rHPIV3-EGFP [1]): 0.81 ± 0.061 µg/mL
- IC50 (MA-104 cells [2]): > 100 µg/mL
- EC50 (rHPIV3-EGFP [3]): 0.35 µg/mL
- SI (rHPIV3-EGFP [3]): >280
- IC50 (MA-104 cells [4]): > 100 µg/mL

Structure (SMILES): N=C(N)c1ncn([C@@H]2O[C@H](CO)[C@@H](O)[C@H]2O)n1 [Ribamidine, 1-[(2R,3R,4S,5R)-3,4-dihydroxy-5-(hydroxymethyl)oxolan-2-yl]-1,2,4-triazole-3-carboximidamide]
- SI (rHPIV3-EGFP [1]): 7
- EC50 (rHPIV3-EGFP [1]): 57 ± 15 µg/mL
- IC50 (MA-104 cells [2]): 390 ± 20 µg/mL
- EC50 (rHPIV3-EGFP [3]): 68 ± 2.6 µg/mL
- SI (rHPIV3-EGFP [3]): >15
- activity category by SI in the EGFP assay (rHPIV3-EGFP [3]): moderately active (between 10 and 49 moderately active)
- IC50 (MA-104 cells [4]): > 1000 µg/mL

Structure (SMILES): NC(=O)c1ncn([C@@H]2O[C@H](CO)[C@@H](O)[C@H]2O)n1 [Ribavirin, 1-[(2R,3R,4S,5R)-3,4-dihydroxy-5-(hydroxymethyl)oxolan-2-yl]-1,2,4-triazole-3-carboxamide]
- EC50 (HPIV-3 WT): 35 ± 2.5 µg/mL (≈ 143 µM)
- EC50 (rHPIV3-EGFP [5]): 19 ± 4.9 µg/mL (≈ 77.8 µM)
- SI (rHPIV3-EGFP [1]): 12
- EC50 (rHPIV3-EGFP [1]): 20 ± 3.6 µg/mL
- IC50 (MA-104 cells [2]): 230 ± 92 µg/mL
- EC50 (rHPIV3-EGFP [3]): 31 µg/mL
- SI (rHPIV3-EGFP [3]): >32
- IC50 (MA-104 cells [4]): > 1000 µg/mL

Structure (SMILES): NC(=O)c1c[se]c([C@@H]2O[C@H](CO)[C@@H](O)[C@H]2O)n1 [Selenazofurin, 2-[(2R,3R,4S,5R)-3,4-dihydroxy-5-(hydroxymethyl)oxolan-2-yl]-1,3-selenazole-4-carboxamide]
- SI (rHPIV3-EGFP [1]): 7
- EC50 (rHPIV3-EGFP [1]): 4.9 ± 1.4 µg/mL
- IC50 (MA-104 cells [2]): 34 ± 7.2 µg/mL
- EC50 (rHPIV3-EGFP [3]): 3.5 ± 0.1 µg/mL
- SI (rHPIV3-EGFP [3]): >29
- activity category by SI in the EGFP assay (rHPIV3-EGFP [3]): moderately active (between 10 and 49 moderately active)
- IC50 (MA-104 cells [4]): > 100 µg/mL

From patent publication US20100316991A1, “HUMAN PARAINFLUENZA VIRUS TYPE 3 EXPRESSING THE ENHANCED GREEN FLUORESCENT PROTEIN FOR USE IN HIGH-THROUGHPUT ANTIVIRAL ASSAYS” (priority 2009, published 2010)
